Source: patent US20110262544A1, “OPHTHALMIC ADMINISTRATION OF A COMPOSITION INCLUDING BRIMONIDINE AS A MIST” (PHARMALIGHT INC., priority 2008, published 2011)

Legend:
[1] = system: albino New Zealand white rabbits; details: conclusion from retinal blood flow in rabbits
Method: Retinal blood flow rate in the major temporal vein in the right eye of albino New Zealand white rabbits is measured at pre-administration baseline, as well as post-administration of Alphagan® P as drops, post-administration of a composition comprising brimonidine and a penetration enhancer as a mist, and post-administration of a composition in accordance with the principles of the present invention comprising brimonidine or a salt thereof and being devoid of a penetration enhancer as a mist. […] In this instrument, the measuring laser beam is locked onto the target blood vessel during eye movements through an eye-tracking feedback and control system. Doppler-shifted laser light scattered from a retinal vessel is analyzed to determine centerline blood velocity.
Venous blood flow, which is known to be directly correlated to arterial blood flow, is measured, since retinal veins have a larger diameter than retinal arteries, facilitating better locking of the measuring laser beams onto the target vessel. […]
The beam from a red 675-nm diode laser is used for velocity measurement, emitted from a fundus camera-like measuring head. The Doppler-shifted light scattered from the flowing blood cells in the target vessel is detected simultaneously in two directions, separated by a fixed angle. […]
Following administration of the composition, the blood flow velocity in the same veins is measured.

[2] = system: Glaucoma patients; details: normal tension glaucoma patients; cited from earlier work

SMILES | efficacy compared between ways of administration or compositions [1] | maintenance of retinal blood flow homeostasis with changes in posture [2]
Brc1c(NC2=NCCN2)ccc2nccnc12 [brimonidine, 5-Bromo-N-(4,5-dihydro-1H-imidazol-2-yl) quinoxalin-6-amine] | as effective as administration in the form of eye-drops | maintained retinal blood flow homeostasis
CC(C)OC(=O)CCC/C=C\C[C@@H]1[C@@H](CC[C@@H](O)CCc2ccccc2)[C@H](O)C[C@@H]1O [latanoprost] |  | not
